Measurements reported in US20080039455A1, “PYRAZOLOPYRIMIDINES AND SALTS THEREOF, PHARMACEUTICAL COMPOSITIONS COMPRISING SAME, METHODS OF PREPARING SAME AND USES OF SAME” (priority 2006, published 2008).

target: T1, human recombinant ALK1 (GST fused to ALK1 intracellular domain [His142-Gln503]) (Homo sapiens, UniProt P37023); assay: ALK1-Kinase Flashplate-Assay; type: biochemical; conditions: 0.5 μM ATP, biotinylated α-casein substrate; read-out: Assay 1 (ALK1-Kinase Flashplate-Assay IC50 class)
T1 construct: GST fused to ALK1 intracellular domain [His142-Gln503]; made in house
T1 sequence (P37023 142-503): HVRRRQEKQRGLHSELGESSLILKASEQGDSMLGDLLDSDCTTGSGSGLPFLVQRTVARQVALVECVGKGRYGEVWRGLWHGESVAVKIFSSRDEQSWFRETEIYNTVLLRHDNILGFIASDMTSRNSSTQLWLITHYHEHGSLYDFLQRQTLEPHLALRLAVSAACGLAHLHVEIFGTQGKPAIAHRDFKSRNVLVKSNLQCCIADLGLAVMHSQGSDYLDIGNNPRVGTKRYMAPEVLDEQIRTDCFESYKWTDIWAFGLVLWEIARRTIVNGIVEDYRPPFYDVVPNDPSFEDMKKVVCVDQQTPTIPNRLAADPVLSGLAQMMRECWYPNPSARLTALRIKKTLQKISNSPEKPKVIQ
Excerpt: Biological Assay 1: ALK1-Kinase Flashplate-Assay
ALK1 phosphorylates serine/threonine residues of the biotinylated substrate bovine α-casein in the presence of [γ-^33P]ATP. Detection of the radiolabeled phosphorylated product is achieved by binding to streptavidine-coated Flashplates. The biotin moieties of biotinylated casein bind with high affinity to the streptavidine. The radiolabeled biotinylated casein produced by the ALK1 kinase reaction is able to generate a […] signal when strepatavidine-mediated binding occurs to the scintillant-containing surface of the Flashplates due to the close proximity of the radiolabel and the scintillant. […] The signals obtained are therefore indicative of the ALK1 kinase activity. Measurement is performed in a Perkin-Elmer TopCount or Perkin-Elmer ViewLux instrument.
Enzyme: Purified human recombinant ALK1 (GST fused to ALK1 intracellular domain [His142-Gln503]) produced in-house, aliquots stored at −80° C.;
Diluted enzyme working solution: 2.5 ng/μl ALK1 (in assay buffer) freshly prepared and chilled on ice until use.
Substrate: biotinylated bovine α-casein. Unbiotinylated casein obtained from Sigma was biotinylated by standard procedures using N-hydroxysuccinimide (NHS) ester of biotin.
Substrate working solution: 0.83 μM ATP, 1.67 μM biotinylated a-casein, 7.4 nCi [γ-^33P]ATP/μl in assay buffer
Assay plates: 384-well plates, small volume, white, Greiner (# 784075)
Flashplates: Streptavidin-coated Flashplates, Perkin Elmer (384-well # SPM410A)
Assay buffer: 50 mM Tris/HCl pH 8.0, 1 mM MnCl2, 1 mM DTT, 0.01% NP40, 0.5× Complete EDTA-free
Stop solution: 33.3 μM ATP, 33.3 mM EDTA, 0.07% Triton X-100 in PBS
Saturating buffer for Flashplates: 100 μM ATP, 0.2% Triton X-100 in PBS
Sealing tape: Greiner (# 676080)
Protocol for small volume 5 μl assay (all steps are performed at 20° C., pipetted with CyBi-Well and Multidrop Micro): • 1. 50 nl or 250 nl compound in 100% DMSO • 2. addition of 3 μl substrate working solution with CyBi-Well pipettor • 3. addition of 2 μl enzyme working solution with Multidrop Micro incubation for 60 min at room temperature • 4. addition of 15 μl Stop solution with CyBi-Well pipettor • 5. transfer of 18 μl assay mixture to Flashplates** with CyBi-Well pipettor incubation for at least 3 h at room temperature or over night at 4° C. to allow binding to the streptavidine-coated Flashplates • 6. washing the Flashplates 3 times with 50 μl PBS without Ca++ and Mg++ • 7. sealing with sealing tape • 8. Measurement in Topcount (60 sec/well) **Saturation of Flashplates: The Flashplates are preincubated for at least 1 hour with 50 μl saturating buffer. Remove 18 μl from the 50 μl and transfer 18 μl of the assay mixture to the Flashplate.
Final concentrations, calculated for 5 μl reaction volume: ALK1 5 ng/well; 1 μM biotinylated α-casein; 0.5 μM ATP; 22 nCi/well [γ-^33P]ATP; 1 mM MnCl2; 1 mM DTT; 50 mM Tris-HCl; pH 8.0; 0.01% NP40; 0.5× Complete EDTA-free; 1% or 5% DMSO.
The data were normalised (enzyme reaction without inhibitor=0% inhibition, enzyme reaction in the presence of 10 mM EDTA=100% inhibition) and IC50 values were calculated by a 4 parameter fit using an in-house software.

| IC50 | SMILES |
| --- | --- |
| < 1000 nM | CC(C)c1ccc(Nc2ccn3ncc(-c4cccc(C(=O)NCCN(C)C)c4)c3n2)cc1 [Example 1, N-(2-dimethylamino-ethyl)-3-[5-(4-isopropyl-phenylamino)-pyrazolo[1,5-a]pyrimidin-3-yl]-benzamide] |
| 1000 to 10000 nM | COc1cc(Nc2ccn3ncc(-c4ccncc4)c3n2)cc(OC)c1OC [Example 4, (3-Pyridin-4-yl-pyrazolo[1,5-a]pyrimidin-5-yl)-(3,4,5-trimethoxy-phenyl)-amine] |
| 1000 to 10000 nM | COc1ccc(Nc2ccn3ncc(-c4ccc(O)cc4)c3n2)cn1 [Example 13, 4-[5-(6-Methoxy-pyridin-3-ylamino)-pyrazolo[1,5-a]pyrimidin-3-yl]-phenol] |
| < 1000 nM | COc1ccc(-c2cnn3ccc(Nc4ccc5[nH]ccc5c4)nc23)cc1OC [Example 17, [3-(3,4-Dimethoxy-phenyl)-pyrazolo[1,5-a]pyrimidin-5-yl]-(1H-indol-5-yl)-amine] |
| 1000 to 10000 nM | Oc1ccc(-c2cnn3ccc(Nc4ccc5[nH]ccc5c4)nc23)cc1 [Example 18, 4-[5-(1H-Indol-5-ylamino)-pyrazolo[1,5-a]pyrimidin-3-yl]-phenol] |
| < 1000 nM | CC(=O)Nc1cccc(-c2cnn3ccc(Nc4ccc5[nH]ccc5c4)nc23)c1 [Example 19, N-{3-[5-(1H-Indol-5-ylamino)-pyrazolo[1,5-a]pyrimidin-3-yl]-phenyl}-acetamide] |
| 1000 to 10000 nM | Oc1ccc(-c2cnn3ccc(Nc4ccc(N5CCOCC5)cc4)nc23)cc1 [Example 28, 4-[5-(4-Morpholin-4-yl-phenylamino)-pyrazolo[1,5-a]pyrimidin-3-yl]-phenol] |
| 1000 to 10000 nM | CC(=O)Nc1cccc(-c2cnn3ccc(Nc4ccc(N5CCOCC5)cc4)nc23)c1 [Example 29, N-{3-[5-(4-Morpholin-4-yl-phenylamino)-pyrazolo[1,5-a]pyrimidin-3-yl]-phenyl}-acetamide] |
| 1000 to 10000 nM | COc1ccc(-c2cnn3ccc(Nc4ccc(Oc5ccccc5)cc4)nc23)cc1OC [Example 33, [3-(3,4-Dimethoxy-phenyl)-pyrazolo[1,5-a]pyrimidin-5-yl]-(4-phenoxy-phenyl)-amine] |
| 1000 to 10000 nM | CC(C)c1ccc(Nc2ccn3ncc(-c4ccncc4)c3n2)cc1 [Example 36, (4-Isopropyl-phenyl)-(3-pyridin-4-yl-pyrazolo[1,5-a]pyrimidin-5-yl)-amine] |
| 1000 to 10000 nM | COc1ccc(-c2cnn3ccc(Nc4ccc(C(C)C)cc4)nc23)cc1OC [Example 37, [3-(3,4-Dimethoxy-phenyl)-pyrazolo[1,5-a]pyrimidin-5-yl]-(4-isopropyl-phenyl)-amine] |
| 1000 to 10000 nM | NC(=O)c1cccc(-c2cnn3ccc(Nc4ccc(Oc5ccccc5)cc4)nc23)c1 [Example 38, 3-[5-(4-Phenoxy-phenylamino)-pyrazolo[1,5-a]pyrimidin-3-yl]-benzamide] |
| 1000 to 10000 nM | CS(=O)(=O)Nc1cccc(-c2cnn3ccc(Nc4ccc(Oc5ccccc5)cc4)nc23)c1 [Example 42, N-{3-[5-(4-Phenoxy-phenylamino)-pyrazolo[1,5-a]pyrimidin-3-yl]-phenyl}-methanesulfonamide] |
| 1000 to 10000 nM | Oc1ccc(Nc2ccn3ncc(-c4ccc5c(c4)OCO5)c3n2)cc1 [Example 45, 4-(3-Benzo[1,3]dioxol-5-yl-pyrazolo[1,5-a]pyrimidin-5-ylamino)-phenol] |
| < 1000 nM | COc1ncc(-c2cnn3ccc(Nc4ccc(O)cc4)nc23)c(OC)n1 [Example 46, 4-[3-(2,4-Dimethoxy-pyrimidin-5-yl)-pyrazolo[1,5-a]pyrimidin-5-ylamino]-phenol] |
| < 1000 nM | Oc1ccc(Nc2ccn3ncc(-c4ccsc4)c3n2)cc1 [Example 48, 4-(3-Thiophen-3-yl-pyrazolo[1,5-a]pyrimidin-5-ylamino)-phenol] |

| IC50 | SMILES |
| --- | --- |
| < 1000 nM | Oc1ccc(Nc2ccn3ncc(-c4ccc(O)cc4)c3n2)cc1 [Example 49, 4-[5-[(4-hydroxyphenyl)amino]pyrazolo[1,5-a]pyrimidin-3-yl]-phenol] |
| < 1000 nM | CC(=O)Nc1cccc(-c2cnn3ccc(Nc4ccc(O)cc4)nc23)c1 [Example 50, N-{3-[5-(4-Hydroxy-phenylamino)-pyrazolo[1,5-a]pyrimidin-3-yl]-phenyl}-acetamide] |
| < 1000 nM | Cc1ccc(S(=O)(=O)Nc2ccc(Nc3ccn4ncc(-c5ccncc5)c4n3)cc2)cc1 [Example 51, 4-Methyl-N-[4-(3-pyridin-4-yl-pyrazolo[1,5-a]pyrimidin-5-ylamino)-phenyl]-benzenesulfonamide] |
| < 1000 nM | Cc1ccc(S(=O)(=O)Nc2ccc(Nc3ccn4ncc(-c5cccnc5)c4n3)cc2)cc1 [Example 52, 4-Methyl-N-[4-(3-pyridin-3-yl-pyrazolo[1,5-a]pyrimidin-5-ylamino)-phenyl]-benzenesulfonamide] |
| < 1000 nM | COc1ccc(-c2cnn3ccc(Nc4ccc(NS(=O)(=O)c5ccc(C)cc5)cc4)nc23)cc1OC [Example 56, N-{4-[3-(3,4-Dimethoxy-phenyl)-pyrazolo[1,5-a]pyrimidin-5-ylamino]-phenyl}-4-methyl-benzenesulfonamide] |
| < 1000 nM | Cc1ccc(Nc2ccn3ncc(-c4ccc(O)cc4)c3n2)cc1NS(C)(=O)=O [Example 60, N-{5-[3-(4-Hydroxy-phenyl)-pyrazolo[1,5-a]pyrimidin-5-ylamino]-2-methyl-phenyl}-methanesulfonamide] |
| < 1000 nM | c1cc(CNc2ccn3ncc(-c4ccc5c(c4)OCO5)c3n2)ccn1 [Example 61, (3-Benzo[1,3]dioxol-5-yl-pyrazolo[1,5-a]pyrimidin-5-yl)-pyridin-4-ylmethyl-amine] |
| < 1000 nM | c1cc(CNc2ccn3ncc(-c4ccsc4)c3n2)ccn1 [Example 63, Pyridin-4-ylmethyl-(3-thiophen-3-yl-pyrazolo[1,5-a]pyrimidin-5-yl)-amine] |
| < 1000 nM | c1ccc2sc(-c3cnn4ccc(NCc5ccncc5)nc34)cc2c1 [Example 64, (3-Benzo[b]thiophen-2-yl-pyrazolo[1,5-a]pyrimidin-5-yl)-pyridin-4-ylmethyl-amine] |
| < 1000 nM | COc1ccc(-c2cnn3ccc(NCc4ccncc4)nc23)cc1OC [Example 65, [3-(3,4-Dimethoxy-phenyl)-pyrazolo[1,5-a]pyrimidin-5-yl]-pyridin-4-ylmethyl-amine] |
| < 1000 nM | Oc1ccc(-c2cnn3ccc(NCc4ccncc4)nc23)cc1 [Example 66, 4-{5-[(Pyridin-4-ylmethyl)-amino]-pyrazolo[1,5-a]pyrimidin-3-yl}-phenol] |
| 1000 to 10000 nM | OC1CCC(Nc2ccn3ncc(-c4cccnc4)c3n2)CC1 (stereo not shown) [Example 67, 4-(3-Pyridin-3-yl-pyrazolo[1,5-a]pyrimidin-5-ylamino)-cyclohexanol] |
| < 1000 nM | COc1ccc(-c2cnn3ccc(NC4CCC(O)CC4)nc23)cc1OC (stereo not shown) [Example 69, 4-[3-(3,4-Dimethoxy-phenyl)-pyrazolo[1,5-a]pyrimidin-5-ylamino]-cyclohexanol] |
| 1000 to 10000 nM | OCCNc1ccn2ncc(-c3ccc4c(c3)OCO4)c2n1 [Example 70, 2-(3-Benzo[1,3]dioxol-5-yl-pyrazolo[1,5-a]pyrimidin-5-ylamino)-ethanol] |
| < 1000 nM | COc1ccc(-c2cnn3ccc(NCCO)nc23)cc1OC [Example 73, 2-[3-(3,4-Dimethoxy-phenyl)-pyrazolo[1,5-a]pyrimidin-5-ylamino]-ethanol] |
